According to PMC10473914, “Phosphorylation of Ack1 by the Receptor Tyrosine Kinase Mer” (Kinases and phosphatases, 2023):
Entries after “also recorded” stand apart in the source; their conditions may differ. Where a SMILES comes first, the peptide text is derived from it. [ ]: non-standard residue; d: D form. The star is where a group is joined. FITC = O=C1OC2(c3ccc(O)cc3Oc3cc(O)ccc32)c2ccc(NC(=S)*)cc21; pY = N[C@@H](Cc1ccc(OP(=O)(O)O)cc1)C(=O)O

Key:
Mer kinase = assay: Phosphocellulose paper binding assay: phosphorylation of MHR-derived peptides by Mer; type: biochemical, human; details: peptide 100 μM; [γ-32P]ATP; purified Mer kinase domain; 30 °C
Method: (§1) Figure 4. Ack1 MHR-derived peptides. (A) Position of the MHR domain in Ack1. The expanded sequences show an alignment between Mig6 and the MHR of Ack1, with Y859–Y860 in yellow. Asterisks indicate conserved residues. (B) Phosphorylation of MHR-derived peptides (100 μM) by Mer was measured using the phosphocellulose paper binding assay (SEM error bars). (C) Binding of fluorescein-labeled pY860 peptide to Mer kinase domain was measured by fluorescence polarization.
For IP-kinase assays, cell lysates (1 mg protein) were incubated with 30 μL of EZview red anti-FLAG M2 affinity resin at 4 °C for 4 h-overnight, then washed three times with Tris-buffered saline. A portion of each sample was eluted with SDS-PAGE sample buffer and analyzed by anti-Flag Western blotting. […]
Synthetic peptides and phosphopeptides were purchased from Genemed Synthesis Inc., San Antonio, TX, USA and were purified by semipreparative HPLC on a Vydac C18 column. Peptide phosphorylation was measured using the phosphocellulose paper binding assay with [γ-^32P] […] In this assay, the production of ADP was coupled to the oxidation of NADH, which was measured as a reduction in absorbance at 340 nm. […] Absorbance data were recorded every 8 s. Kinetic constants were determined by nonlinear fitting to the initial velocity vs. (substrate) curves using GraphPad Prism, San Diego, CA, USA (v.9).

Ack1 = details: mice treated with a TLR7 ligand; cited from earlier work
From the text: It is increasingly clear that Mer plays a crucial role in the macrophage-mediated phagocytosis of apoptotic cells. […] Gas6 has a Gla domain at its N-terminus and binds to Mer and other TAMs to promote tyrosine kinase activity. […] Gene expression studies in colon cancer patients have shown a correlation between Ack1 expression and the extent of immune cell infiltration. Ack1 is required for apoptosis induced by TRAIL, an apoptosis-promoting factor [25], and dysregulation of Ack1 is linked to abnormal apoptotic activity. Ack1 promotes the activation of the Toll-like receptor (TLR) family members TLR4, TLR7, and TLR9 in macrophages and dendritic cells. A small molecule inhibitor of Ack1 (AIM-100) re ...

macrophages = details: cited from earlier work
From the text: Gene expression studies in colon cancer patients have shown a correlation between Ack1 expression and the extent of immune cell infiltration. Ack1 is required for apoptosis induced by TRAIL, an apoptosis-promoting factor [25], and dysregulation of Ack1 is linked to abnormal apoptotic activity. Ack1 promotes the activation of the Toll-like receptor (TLR) family members TLR4, TLR7, and TLR9 in macrophages and dendritic cells. A small molecule inhibitor of Ack1 (AIM-100) re ...

[1] = target: fluorescein-labeled Ack1 MHR peptide pY860; assay: fluorescence polarisation; fluorescein-labelled phosphopeptide at 0.25 or 0.5 uM, increasing concentrations of Mer catalytic domain; 50 mM Tris pH 7.4, 50 uL; apparent Kd
Mer kinase domain = target: T1, Mer kinase domain (Homo sapiens, UniProt Q12866); assay: Fluorescence polarization binding of fluorescein-labeled phosphopeptides to Mer kinase domain
T1 construct: His tag; host or cells: E. coli YGT cells co-expressing YopH tyrosine phosphatase and GroEL
T1 sequence (Q12866 587-858 limits assumed): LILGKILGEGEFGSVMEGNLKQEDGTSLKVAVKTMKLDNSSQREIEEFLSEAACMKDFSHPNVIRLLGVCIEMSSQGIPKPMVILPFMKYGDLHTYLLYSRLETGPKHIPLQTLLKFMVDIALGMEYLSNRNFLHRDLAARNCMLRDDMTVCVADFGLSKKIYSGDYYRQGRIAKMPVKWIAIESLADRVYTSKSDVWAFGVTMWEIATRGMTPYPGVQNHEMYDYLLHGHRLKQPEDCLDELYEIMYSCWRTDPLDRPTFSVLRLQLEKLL
Method: as §1
To confirm the interaction between pY860 and Mer, we attached fluorescein to the N-terminus of peptide pY860 and measured fluorescence polarization in the presence of increasing concentrations of Mer catalytic domain (Figure 4C).
Phosphotyrosine-containing peptides were fluorescently labeled by reaction with fluorescein isothiocyanate (5 molar equivalents) in 100 mM potassium phosphate buffer (pH 7.0) for 1 h at room temperature. The fluorescent peptides were purified by gel filtration chromatography on G15 Sephadex. Fluorescence polarization was measured in a Wallac1420 Victor2 instrument using 96-well half area black plates (Thermo Fisher, Waltham, MA, USA). The excitation filter was 485 nm, and the emission filter was 535 nm. Measurements were performed in volumes of 50 μL using a buffer of 50 mM Tris (pH 7.4), with peptide concentrations of 0.25 μM or 0.5 μM. The data were analyzed with Origin software (Origin v.7).

Molecule: RLSSSPGKTMPTTQSFASDPKYA [MHR1, Ack1 MHR-derived synthetic peptide containing Y827]
- Phosphorylation of peptide by Mer (substrate quality) (Mer kinase): not a good substrate

Molecule: c1ccc(-c2oc3ncnc(NC[C@@H]4CCCO4)c3c2-c2ccccc2)cc1 [AIM-100]
- Effect on lupus symptoms / lupus-like phenotype (Ack1): mitigated the lupus symptoms; also recorded: diminishing the lupus-like phenotype
- Effect on TLR-mediated activation of macrophages (macrophages): reduced

Molecule: His-tagged Mer kinase domain (from UniProt Q12866 587-858) (domain or fragment)
- Kd [1]: 5.4 µM

Molecule: CC(C)C[C@H](NC(=O)[C@H](Cc1ccc(OP(=O)(O)O)cc1)NC(=O)[C@H](Cc1ccc(O)cc1)NC(=O)[C@H](Cc1c[nH]cn1)NC(=O)[C@@H](NC(=O)[C@H](CO)NC(=O)[C@H](CO)NC(=O)[C@@H](NC(=O)[C@H](CCCCN)NC(=O)[C@H](CCCCN)NC(=O)CNC(=O)[C@H](CC(=O)O)NC(=O)[C@H](CCCNC(=N)N)NC(=S)Nc1ccc2c(c1)C(=O)OC21c2ccc(O)cc2Oc2cc(O)ccc21)C(C)C)[C@@H](C)O)C(=O)N[C@@H](CC(C)C)C(=O)N1CCC[C@H]1C(=O)N[C@@H](CCC(=O)O)C(=O)O [pY860] ({FITC}-RDGKKVSSTHY[pY]LLPE-OH)
- Kd (Mer kinase domain): 5.4 µM

Molecule: RDGKKVSSTHpYYLLPE [pY859, Ack1 MHR-derived phosphopeptide containing phosphorylated Y859]
- Binding of peptide to Mer (fluorescence polarization) (Mer kinase domain; fluorescein-labeled peptide, 50 mM Tris pH 7.4, peptide 0.25 or 0.5 μM): below the detection limit; also recorded: poor binding
